The values that follow come from ChEMBL document CHEMBL5252626, “Design and synthesis of novel GluN2A NMDAR positive allosteric modulators via scaffold hopping strategy as anti-stroke therapeutic agents” (Bioorg Med Chem, 2023).

Values after ≈ are worked out from the molar mass of the structure shown. Active and inactive are the calls of the source. The calls are words filed in the database; no cut-off is given here.

Data set [1] relates to PC-12. The data set can be described thus: Neuroprotective activity against glutamate-induced neurotoxicity in rat PC-12 cells assessed as survival rate at 1 uM by WST-8 assay. Format: functional. Background: Tetrazolium dyes change colour on reduction, which living cells bring about.
The subject of data set [2] is PC-12. In words: Neuroprotective activity against glutamate-induced neurotoxicity in rat PC-12 cells assessed as survival rate at 10 uM by WST-8 assay. Format: functional.
The nature of data set [3]: Solubility of the compound in water by UV spectophotometry analysis. Format: physicochemical.
Data set [4] relates to PC-12. In words: Cytotoxicity in rat PC-12 cells assessed as reduction in cell viability at 10 uM incubated for 24 hrs by CCK-8 method. It counts as toxicity, cell-based. The note with it: pc-12, 24 h.
Data set [5] deals with PC-12. The data set can be described thus: Neuroprotective activity against glutamate-induced neurotoxicity in rat PC-12 cells assessed as survival rate at 0.1 uM by WST-8 assay (reference value: 40.8+/-2.0%). It counts as functional.
Data set [6] relates to Mus musculus. In words: Neuroprotective activity in middle cerebral artery occlusion-induced C57BL/6 mouse model assessed as reduction in infarct volume at 2 mg/kg, sc incubated with compound for 2 hrs after reperfusion by TTC staining based assay relative to control. Format: functional. Also noted: scale not given: the % may be the effect or the level left.
Data set [7] concerns the target Glutamate NMDA receptor; GRIN1/GRIN2B (Homo sapiens) (UniProt Q05586+Q13224). The data set can be described thus: Positive allosteric modulation of GluN1/GluN2B receptor (unknown origin) stably expressed in HEK293 cells assessed as glutamate/glycine induced increase in intracellular calcium level at 10 uM incubated for 30 mins followed by addition of glutamate/glycine by Ca2+ influx assay. It counts as cell-based. The note with it: filed as positive allosteric modulator. (A change in cytosolic calcium serves as a functional read-out for many receptors and channels.)

The target of data set [8] is Glutamate NMDA receptor; GRIN1/GRIN2A (Homo sapiens) (UniProt Q05586+Q12879). The data set can be described thus: Positive allosteric modulation of GluN1/GluN2A receptor (unknown origin) stably expressed in HEK293 cells assessed as glutamate/glycine induced increase in intracellular calcium level at 10 uM incubated for 30 mins followed by addition of glutamate/glycine by Ca2+ influx assay. Conditions: filed as positive allosteric modulator. It counts as cell-based.

Data set [9] concerns Mus musculus. The data set can be described thus: Neuroprotective activity in middle cerebral artery occlusion-induced C57BL/6 mouse model assessed as reduction in infarct volume at 2 mg/kg, sc incubated with compound for 2 hrs after reperfusion by TTC staining based assay. It counts as functional.

Broadly, the solubility is the dissolved amount per volume that the medium holds. As for `COC(=O)c1ccc(NC(=O)C2=Cc3ccccc3OC2)cc1`, the Activity in the data set on PC-12 [1] is 62.6%; in the data set with PC-12 [2], 55.5%; in the data set on PC-12 [4], 91.4%; in the data set on PC-12 [5], 58.4%. Also, the concentration in solution in data set [3] (solubility) came to 202 µM (≈ 62.5 µg/mL).
As to `COc1cccc2c(=O)c(C(=O)Nc3cc(O)ccc3C)c[nH]c12`, the Activity was determined as 46.4% in the data set on PC-12 [1], 56.1% in the data set on PC-12 [2], 85.8% with PC-12 [4] and 34.5% in the data set on PC-12 [5].
For `CNC(=O)c1ccccc1NC(=O)c1c[nH]c2c(Cl)cccc2c1=O` the same measures were 47.3%, 42.6%, 93.8% and 47.6%.
For `COc1ccccc1NC(=O)c1c[nH]c2ccccc2c1=O`, the Activity is reported as 60.1% with PC-12 [1], 31.2% in the data set with PC-12 [2], 63% in the data set on PC-12 [4] and 36.6% in the data set on PC-12 [5].
For `COc1ccccc1CNC(=O)c1c[nH]c2c(Cl)cccc2c1=O`, the Activity was determined as 41.2% with PC-12 [1], 23.2% in the data set on PC-12 [2], 66.1% in the data set with PC-12 [4] and 44.4% in the data set with PC-12 [5].
With `COC(=O)c1ccc(NC(=O)C2=Cc3cccc(OC)c3OC2)cc1`, the Activity came to 57.5% with PC-12 [1], 41.2% in the data set with PC-12 [2], 73.3% with PC-12 [4] and 58.7% in the data set on PC-12 [5].
Taken in the same sequence, the figures for `COc1ccc(NC(=O)c2c[nH]c3ccccc3c2=O)c(C)c1` were 34.2%, 44%, 62% and 33.6%.
As to `COc1cccc(NC(=O)c2c[nH]c3ccccc3c2=O)c1`, the Activity in the data set with PC-12 [1] came out at 59.5%; with PC-12 [2], 44.5%; in the data set on PC-12 [4], 100.8%; with PC-12 [5], 65.5%. In data set [3], this molecule displayed a solubility of 454 µM (≈ 133 µg/mL).
On to `O=C(NCc1ccc(Br)cc1)c1cc2c(Br)cccc2oc1=O`, for which the Activity is reported as 40.76% with PC-12 [1], 39.9% in the data set with PC-12 [2], 94.97% in the data set with PC-12 [4] and 40.87% in the data set with PC-12 [5].
On to `Cc1ccc(O)cc1NC(=O)c1c[nH]c2c(Cl)cccc2c1=O`, for which the Activity in the data set with PC-12 [1] was determined as 44.7%; in the data set with PC-12 [2] it was 41.6%; with PC-12 [4], 92.7%; in the data set with PC-12 [5], 53.6%. The concentration in solution in data set [3] (solubility) was 140 µM (≈ 46 µg/mL).
Taken in the same sequence, the figures for `CNC(=O)c1ccccc1NC(=O)c1c[nH]c2ccccc2c1=O` were 55.9%, 53.7%, 90.6%, 56.4% and 62.3 µM (≈ 20 µg/mL).
With `COc1ccccc1NC(=O)C1=Cc2ccccc2OC1`, the Activity in the data set on PC-12 [1] is given as 36.9%; with PC-12 [2], 76.9%; with PC-12 [4] it was 74.1%; in the data set with PC-12 [5] it was 41.2%.
As to `O=C(Nc1cccnc1)c1c[nH]c2ccccc2c1=O`, the Activity turned out to be 38.5% with PC-12 [1], 39.3% with PC-12 [2], 80.9% in the data set on PC-12 [4] and 42.5% in the data set with PC-12 [5].
Regarding `O=C(Nc1cc(Cl)ccc1O)C1=Cc2ccccc2OC1`, the Activity in the data set with PC-12 [1] is 57.2%; in the data set with PC-12 [2], 52.5%; in the data set on PC-12 [4] it was 92.2%; in the data set on PC-12 [5] it was 67.6%.
As for `COc1ccc(NC(=O)c2c[nH]c3c(Cl)cccc3c2=O)cc1`, the Activity with PC-12 [1] amounted to 35.5%; in the data set on PC-12 [2] it was 54.3%; with PC-12 [4] it was 79.9%; in the data set with PC-12 [5], 33.6%.
Regarding `COc1cccc2c1OCC(C(=O)Nc1cc(Cl)ccc1O)=C2`, the Activity in the data set with PC-12 [1] is 58.6%; in the data set on PC-12 [2] it was 71.3%; in the data set with PC-12 [4], 92.6%; in the data set with PC-12 [5], 61.5%.
For `CC(C(O)c1ccc(O)cc1)N1CCC(Cc2ccccc2)CC1` (centres undefined) [IFENPRODIL], the Activity with PC-12 [1] is given as 46.4%; with PC-12 [2], 40.3%; with PC-12 [4], 82.3%; in the data set with PC-12 [5] it was 41.4%.
Turning to `O=C(NCc1cccc(Cl)c1)c1cc2c(Br)cccc2oc1=O`, the Activity in the data set on PC-12 [1] came out at 45.2%; in the data set on PC-12 [2], 43.1%; in the data set with PC-12 [4], 97%; in the data set with PC-12 [5], 45.4%.
With `COc1cccc2c1C=C(C(=O)Nc1cc(Cl)ccc1O)CO2`, the Activity with PC-12 [1] was 58.5%; in the data set with PC-12 [2], 64.8%; in the data set with PC-12 [4] it was 95%; in the data set with PC-12 [5], 51.2%.
As to `COc1ccccc1NC(=O)c1c[nH]c2c(Cl)cccc2c1=O`, the Activity in the data set on PC-12 [1] was 64.9%; with PC-12 [2], 52.8%; with Mus musculus [6], 49%; in the data set on PC-12 [4], 84.4%; in the data set with PC-12 [5], 64.3%. In data set [3], this molecule registered a solubility of 13.7 µM (≈ 4.5 µg/mL). Besides, the result in data set [7] and in data set [8] was Active.
Turning to `COc1cccc(OC)c1NC(=O)C1=Cc2c(Br)cccc2OC1`, the Activity was 46.4% in the data set on PC-12 [1], 52.8% in the data set on PC-12 [2], 92.9% in the data set with PC-12 [4] and 45.2% in the data set with PC-12 [5].
`N#Cc1ccc(NC(=O)c2c[nH]c3ccccc3c2=O)cc1`: the Activity in the data set on PC-12 [1] is 39.7%; in the data set with PC-12 [2], 40.7%; in the data set on PC-12 [4] it was 71.9%; with PC-12 [5], 34.7%.
Taken in the same sequence, the figures for `CNC(=O)c1ccccc1NC(=O)C1=Cc2c(Br)cccc2OC1` were 46.1%, 47.9%, 89.2% and 48.1%.
With `CC(=O)Nc1ccc(NC(=O)c2c[nH]c3ccccc3c2=O)cc1`, the Activity is recorded as 66.6% in the data set with PC-12 [1], 65.4% with PC-12 [2], 101.5% in the data set on PC-12 [4] and 57.2% in the data set with PC-12 [5]. In data set [3], this molecule yielded a solubility of less than 6.2 µM.
For the molecule `COc1ccccc1CNC(=O)c1c[nH]c2ccccc2c1=O`, the Activity is recorded as 44.4% in the data set with PC-12 [1], 17.7% with PC-12 [2], 28.8% in the data set with PC-12 [4] and 50.3% with PC-12 [5].
On to `COc1cccc(NC(=O)C2=Cc3ccccc3OC2)c1`, for which the Activity worked out at 35.3% in the data set with PC-12 [1], 62.6% in the data set on PC-12 [2], 79.1% in the data set with PC-12 [4] and 34.2% in the data set on PC-12 [5].
Turning to `CC(=O)Nc1ccc(NC(=O)C2=Cc3ccccc3OC2)cc1`, the Activity in the data set on PC-12 [1] was 54.1%; in the data set on PC-12 [2], 57.3%; in the data set on PC-12 [4], 84.7%; in the data set with Mus musculus [9], 93 mm; with PC-12 [5], 62.1%. In data set [3], the solubility is 364 µM (≈ 112 µg/mL).
On to `COc1ccccc1NC(=O)C1=Cc2c(OC)cccc2OC1`, for which the Activity amounted to 56.1% with PC-12 [1], 50.9% in the data set on PC-12 [2], 81.8% in the data set with PC-12 [4] and 58.2% in the data set on PC-12 [5].
Turning to `CC(=O)Nc1ccc(NC(=O)C2=Cc3c(Br)cccc3OC2)cc1`, the Activity in the data set with PC-12 [1] worked out at 46.9%; in the data set on PC-12 [2] it was 41.7%; in the data set with PC-12 [4] it was 92.9%; in the data set with PC-12 [5], 46.7%.
As for `CCOc1ccc(NC(=O)c2cnc3ccccc3c2O)cc1`, the Activity is 28.8% in the data set on PC-12 [1], 52.7% in the data set with PC-12 [2], 93.2% in the data set on PC-12 [4] and 36.4% in the data set on PC-12 [5].
For `COc1ccc(NC(=O)c2c[nH]c3ccccc3c2=O)cc1`, the Activity in the data set with PC-12 [1] is 69.8%; in the data set with PC-12 [2], 53.1%; in the data set with PC-12 [4] it was 81.1%; in the data set with PC-12 [5], 71%.
Consider `COc1cccc2c1OCC(C(=O)Nc1ccc(Br)cn1)=C2`, for which the Activity in the data set with PC-12 [1] is 58.2%; in the data set with PC-12 [2], 43.7%; in the data set with PC-12 [4], 75.3%; in the data set on PC-12 [5], 65.3%.
Consider `CC(=O)c1ccc(NC(=O)c2c[nH]c3ccccc3c2=O)cc1`, for which the Activity in the data set with PC-12 [1] amounted to 30.8%; with PC-12 [2], 40.2%; in the data set on PC-12 [4] it was 74.6%; in the data set on PC-12 [5], 30.8%.
As to `COc1ccc(NC(=O)C2=Cc3ccccc3OC2)cc1`, the Activity with PC-12 [1] came to 35%; in the data set with PC-12 [2], 61.5%; with PC-12 [4] it was 100.3%; in the data set on PC-12 [5] it was 43.3%.
On to `COc1cccc2c1OCC(C(=O)Nc1ccc(NC(C)=O)cc1)=C2`, for which the Activity is recorded as 54% in the data set with PC-12 [1], 41.2% with PC-12 [2], 67.3% with PC-12 [4] and 53.5% in the data set on PC-12 [5].
For `COc1cccc2c1C=C(C(=O)Nc1ccc(NC(C)=O)cc1)CO2` the same measures were 76.9%, 56.9%, 85.5% and 59.2%.
As for `COC(=O)c1ccc(NC(=O)c2c[nH]c3ccccc3c2=O)cc1`, the Activity in the data set with PC-12 [1] is recorded as 61.3%; with PC-12 [2], 49.7%; in the data set on PC-12 [4], 73.6%; in the data set on PC-12 [5], 61.6%.
